According to patent publication US11666577B2 (National Institute of Biological Sciences, Beijing, priority 2018, dated 2023):

These compounds were tested on HT-29 cells (assay: Necroptosis assay (TNF-α/Smac mimetic/z-VAD, TSZ-induced) in HT-29 cells). Conditions: Homo sapiens; Series 1 (Table 1) compounds 1-146; HT-29 cells, TNF-α/Smac mimetic/z-VAD, 24 hrs, cell viability by ATP level; read-out: Series 1 compound necroptosis activity.
Type: cell-based, human
Outline: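 HT-29 cells were challenged with 20 ng/ml TNF-α, 100 nM Smac mimetic and 20 mM z-VAD while compound was added at the same time (library screen at 10 mM). After 24 h, viability was read as ATP luminescence (CellTiter-Glo) and normalized to DMSO-treated cells; values are means ± SD of duplicates.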
CNc1cc(C#CCn2c(=O)n(C)c(=O)c3c2nc(S(=O)(=O)Cc2cc(OC)ccc2OC)n3C)ccn1 [Compound 127, 8-((2,5-dimethoxybenzyl)sulfonyl)-1,7-dimethyl-3-(3-(2-(methylamino)pyridin-4-yl)prop-2-yn-1-yl)-3,7-dihydro-1H-purine-2,6-dione] showed an EC50 of 1 to 10 µM. Compound CNc1cc(C#CCn2c(=O)n(C)c(=O)c3c2nc([S+]([O-])Cc2cc(OC)ccc2OC)n3C)ccn1 (centres unmarked) [Compound 128, 8-((2,5-dimethoxybenzyl)sulfinyl)-1,7-dimethyl-3-(3-(2-(methylamino)pyridin-4-yl)prop-2-yn-1-yl)-3,7-dihydro-1H-purine-2,6-dione] has an EC50 of 1 to 100 µM. COc1ccc(OC)c(Cn2c(=O)n(C)c(=O)c3c2nc(S(=O)(=O)Cc2cc(OC)ccc2OC)n3C)c1 [Compound 129, 3-(2,5-dimethoxybenzyl)-8-(2,5-dimethoxybenzylsulfonyl)-1,7-dimethyl-1H-purine-2,6(3H,7H)-dione] showed an EC50 of 1 to 100 µM. Work on Cn1c(=O)c2c(nc(S(=O)(=O)CC3CC3)n2C)n(Cc2ccccc2F)c1=O [Compound 133, 8-((cyclopropylmethyl)sulfonyl)-3-(2-fluorobenzyl)-1,7-dimethyl-1H-purine-2,6(3H,7H)-dione] yielded an EC50 of 1 to 100 µM. Work on Cn1c(=O)c2c(nc(S(=O)(=O)CC3CC3)n2C)n(Cc2cccc(F)c2)c1=O [Compound 134, 8-((cyclopropylmethyl)sulfonyl)-3-(3-fluorobenzyl)-1,7-dimethyl-1H-purine-2,6(3H,7H)-dione] yielded an EC50 of 1 to 100 µM. In the case of Cn1c(=O)c2c(nc(S(=O)(=O)CC3CC3)n2C)n(Cc2ccc(F)cc2)c1=O [Compound 135, 8-((cyclopropylmethyl)sulfonyl)-3-(4-fluorobenzyl)-1,7-dimethyl-1H-purine-2,6(3H,7H)-dione], the EC50 is reported as 1 to 100 µM. Cn1c(=O)c2c(nc(S(=O)(=O)CC3CC3)n2C)n(Cc2ccccc2Cl)c1=O [Compound 136, 3-(2-chlorobenzyl)-8-((cyclopropylmethyl)sulfonyl)-1,7-dimethyl-1H-purine-2,6(3H,7H)-dione] showed an EC50 of 1 to 100 µM. Cn1c(=O)c2c(nc(S(=O)(=O)CC3CC3)n2C)n(Cc2cccc(Cl)c2)c1=O [Compound 137, 3-(3-chlorobenzyl)-8-((cyclopropylmethyl)sulfonyl)-1,7-dimethyl-1H-purine-2,6(3H,7H)-dione] gave an EC50 of 1 to 100 µM. Work on Cn1c(=O)c2c(nc(S(=O)(=O)CC3CC3)n2C)n(Cc2ccc(Cl)cc2)c1=O [Compound 138, 3-(4-chlorobenzyl)-8-((cyclopropylmethyl)sulfonyl)-1,7-dimethyl-1H-purine-2,6(3H,7H)-dione] yielded an EC50 of 1 to 100 µM. Cn1c(=O)c2c(nc(S(=O)(=O)CC3CC3)n2C)n(Cc2ccccc2Br)c1=O [Compound 139, 3-(2-bromobenzyl)-8-((cyclopropylmethyl)sulfonyl)-1,7-dimethyl-1H-purine-2,6(3H,7H)-dione] gave an EC50 of 1 to 100 µM. Work on Cn1c(=O)c2c(nc(S(=O)(=O)CC3CC3)n2C)n(Cc2cccc(Br)c2)c1=O [Compound 140, 3-(3-bromobenzyl)-8-((cyclopropylmethyl)sulfonyl)-1,7-dimethyl-1H-purine-2,6(3H,7H)-dione] yielded an EC50 of 1 to 100 µM. Compound Cn1c(=O)c2c(nc(S(=O)(=O)CC3CC3)n2C)n(Cc2ccc(Br)cc2)c1=O [Compound 141, 3-(4-bromobenzyl)-8-((cyclopropylmethyl)sulfonyl)-1,7-dimethyl-1H-purine-2,6(3H,7H)-dione] has an EC50 of 1 to 100 µM.

Same assay, conditions: Series 1 (Table 1) compounds 1-146; HT-29 cells, TNF-α/Smac mimetic/z-VAD, 24 hrs, cell viability by ATP level; read-out: Series 1 compound necroptosis activity
For CCNC(=O)C#CCn1c(=O)n(C)c(=O)c2c1nc(S(C)(=O)=O)n2C [Compound 132, 4-(1,7-dimethyl-8-(methylsulfonyl)-2,6-dioxo-1H-purin-3(2H,6H,7H)-yl)-N-ethylbut-2-ynamide], the EC50 was 1 to 1000 µM. For Cn1c(=O)c2c(nc(S(=O)(=O)CC3CC3)n2C)n(Cc2ccccn2)c1=O [Compound 142, 8-((cyclopropylmethyl)sulfonyl)-1,7-dimethyl-3-(pyridin-2-ylmethyl)-1H-purine-2,6(3H,7H)-dione], the EC50 was 1 to 1000 µM. Cn1c(=O)c2c(nc(S(=O)(=O)CC3CC3)n2C)n(Cc2cccnc2)c1=O [Compound 143, 8-((cyclopropylmethyl)sulfonyl)-1,7-dimethyl-3-(pyridin-3-ylmethyl)-1H-purine-2,6(3H,7H)-dione] gave an EC50 of 1 to 1000 µM. Cn1c(=O)c2c(nc(S(=O)(=O)CC3CC3)n2C)n(Cc2ccncc2)c1=O [Compound 144, 8-((cyclopropylmethyl)sulfonyl)-1,7-dimethyl-3-(pyridin-4-ylmethyl)-1H-purine-2,6(3H,7H)-dione] was tested, and the EC50 was 1 to 1000 µM. Cc1c2c(=O)n(C)c(=O)n(C)c2nn1S(C)(=O)=O [Compound 145, 3,5,7-trimethyl-2-(methylsulfonyl)-2H-pyrazolo[3,4-d]pyrimidine-4,6(5H,7H)-dione] showed an EC50 of 1 to 1000 µM. Work on Cn1c(=O)c2nc(S(C)(=O)=O)n(C)c2n(C)c1=O [Compound 146, 1,3,9-trimethyl-8-(methylsulfonyl)-3,9-dihydro-1H-purine-2,6-dione] yielded an EC50 of 1 to 1000 µM.

Same assay, conditions: Series 1 (Table 1) compounds 147-176; activity extrapolated; read-out: Series 1 compound necroptosis activity (extrapolated)
For Cn1c(=O)c2c(nc(S(=O)(=O)CCO)n2C)n(CC#Cc2cccc(O)c2)c1=O [Compound 147], the EC50 was 1 to 1000 µM. Cn1c(=O)c2c(nc3n2CCS3(=O)=O)n(CC#Cc2cccc(O)c2)c1=O [Compound 148] showed an EC50 of 1 to 1000 µM. With Cn1c(=O)c2c(nc3n2CCCS3(=O)=O)n(CC#Cc2cccc(O)c2)c1=O [Compound 149] the EC50 was 1 to 1000 µM. Cn1c(=O)c2c(nc(S(=O)(=O)CCN)n2C)n(CC#Cc2cccc(O)c2)c1=O [Compound 150] showed an EC50 of 1 to 1000 µM. CNCCS(=O)(=O)c1nc2c(c(=O)n(C)c(=O)n2CC#Cc2cccc(O)c2)n1C [Compound 151] was tested, and the EC50 was 1 to 1000 µM.

Same assay, conditions: Series 1 (Table 1) compounds; HT-29 cells, TNF-α/Smac mimetic/z-VAD, 24 hrs, cell viability by ATP level; read-out: Series 1 compound necroptosis activity
In the case of Cn1c(=O)c2c(nc(S(=O)(=O)CC3CC3)n2C)n(CC#Cc2ccc(Br)cc2)c1=O [Compound 122, 3-(3-(4-bromophenyl)prop-2-yn-1-yl)-8-((cyclopropylmethyl)sulfonyl)-1,7-dimethyl-3,7-dihydro-1H-purine-2,6-dione], the EC50 is reported as 0.001 to 1 µM. With Cn1c(=O)c2c(nc(S(=O)(=O)CC3CC3)n2C)n(CC#Cc2cccc(NC(=O)OC(C)(C)C)c2)c1=O [Compound 123, tert-butyl(3-(3-(8-((cyclopropylmethyl)sulfonyl)-1,7-dimethyl-2,6-dioxo-1,2,6,7-tetrahydro-3H-purin-3-yl)prop-1-yn-1-yl)phenyl)carbamate] the EC50 was 0.001 to 1 µM. For Cn1c(=O)c2c(nc(S(=O)(=O)CC3CC3)n2C)n(CC#Cc2cccc(N)c2)c1=O [Compound 124, 3-(3-(3-aminophenyl)prop-2-yn-1-yl)-8-((cyclopropylmethyl)sulfonyl)-1,7-dimethyl-3,7-dihydro-1H-purine-2,6-dione], the EC50 was 0.001 to 1 µM. Work on Cn1c(=O)c2c(nc(S(=O)(=O)CC3CC3)n2C)n(CC#Cc2cccc([N+](=O)[O-])c2)c1=O [Compound 125, 8-((cyclopropylmethyl)sulfonyl)-1,7-dimethyl-3-(3-(3-nitrophenyl)prop-2-yn-1-yl)-3,7-dihydro-1H-purine-2,6-dione] yielded an EC50 of 0.001 to 1 µM. Compound CNc1cc(C#CCn2c(=O)n(C)c(=O)c3c2nc(S(=O)(=O)CC2CC2)n3C)ccn1 [Compound 126, 8-((cyclopropylmethyl)sulfonyl)-1,7-dimethyl-3-(3-(2-(methylamino)pyridin-4-yl)prop-2-yn-1-yl)-3,7-dihydro-1H-purine-2,6-dione] has an EC50 of 0.001 to 1 µM. Cn1c(=O)c2c(nc(S(C)(=O)=O)n2C)n(Cc2cccs2)c1=O [Compound 131, 1,7-dimethyl-8-(methylsulfonyl)-3-(thiophen-2-ylmethyl)-1H-purine-2,6(3H,7H)-dione] gave an EC50 of 0.001 to 1 µM.
